How the values were obtained:
Type in all cases: in vivo
[1] = system: barnyardgrass (Echinochloa crus-galli); experiment: Test A preemergence; conditions: Echinochloa crus-galli, pre-emergence, 240 h, preemergence, read-out: Barnyardgrass plant response rating; for pest or weed control at 125 g/ha: 125 g ai/ha, 0 to 100 scale where 0 is no effect and 100 is complete control, approx. 10 d; for pest or weed control at 500 g/ha: 500 g ai/ha, visual injury rating about 10 d after treatment, 0 to 100 scale (0 no effect, 100 complete control)
Outline: (§1)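 Seeds sprayed preemergence with a directed soil spray, or plants at 2 to 10 cm height and one- to two-leaf stage sprayed postemergence, with test chemicals in a non-phytotoxic solvent mixture containing surfactant, in loam soil–sand blend. Injury rated visually against untreated controls after about 10 d in greenhouse, 0 (no effect) to 100 (complete control).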

[2] = system: giant foxtail (Setaria faberii); experiment: Test A preemergence; conditions: Setaria faberi, pre-emergence, 240 h, preemergence, 0 to 100 scale where 0 is no effect and 100 is complete control, read-out: Foxtail, Giant plant response rating; for pest or weed control at 125 g/ha: 125 g ai/ha, approx. 10 d; for pest or weed control at 500 g/ha: 500 g ai/ha
Outline: as §1

[3] = system: ryegrass, Italian (Italian ryegrass, Lolium multiflorum); experiment: Test A preemergence; conditions: Lolium multiflorum, pre-emergence, 240 h, preemergence, 0 to 100 scale where 0 is no effect and 100 is complete control, read-out: Ryegrass, Italian plant response rating; for pest or weed control at 125 g/ha: 125 g ai/ha, approx. 10 d; for pest or weed control at 500 g/ha: 500 g ai/ha
Outline: as §1

[4] = system: pigweed (Amaranthus retroflexus); experiment: Test A preemergence; conditions: Amaranthus retroflexus, pre-emergence, 240 h, preemergence, 0 to 100 scale where 0 is no effect and 100 is complete control, read-out: Pigweed plant response rating; for pest or weed control at 125 g/ha: 125 g ai/ha, approx. 10 d; for pest or weed control at 500 g/ha: 500 g ai/ha
[5] = system: ragweed (common ragweed, Ambrosia elatior); experiment: Test A preemergence; conditions: Ambrosia artemisiifolia, pre-emergence, 240 h, preemergence, 0 to 100 scale where 0 is no effect and 100 is complete control, read-out: Ragweed plant response rating; for pest or weed control at 125 g/ha: 125 g ai/ha, approx. 10 d; for pest or weed control at 500 g/ha: 500 g ai/ha
Outline: as §1

[6] = system: Kochia (Kochia scoparia); experiment: Test A preemergence; conditions: Bassia scoparia, pre-emergence, 240 h, preemergence, 0 to 100 scale where 0 is no effect and 100 is complete control, read-out: Kochia plant response rating; for pest or weed control at 125 g/ha: 125 g ai/ha, approx. 10 d; for pest or weed control at 500 g/ha: 500 g ai/ha
Outline: as §1

[7] = system: barnyardgrass (Echinochloa crus-galli); experiment: Test A postemergence; conditions: Echinochloa crus-galli, post-emergence, 240 h, postemergence, read-out: Barnyardgrass plant response rating; for pest or weed control at 125 g/ha: 125 g ai/ha, visual injury on 0 to 100 scale (0 no effect, 100 complete control), approx. 10 d; for pest or weed control at 500 g/ha: 500 g ai/ha, 0 to 100 scale, 0 is no effect, 100 is complete control
Outline: as §1

[8] = system: giant foxtail (Setaria faberii); experiment: Test A postemergence; conditions: Setaria faberi, post-emergence, 240 h, postemergence, read-out: Foxtail, Giant plant response rating; for pest or weed control at 125 g/ha: 125 g ai/ha, visual injury on 0 to 100 scale (0 no effect, 100 complete control), approx. 10 d; for pest or weed control at 500 g/ha: 500 g ai/ha, 0 to 100 scale, 0 is no effect, 100 is complete control
Outline: as §1

[9] = system: corn (Zea mays); experiment: Test A postemergence; conditions: Zea mays, post-emergence, 240 h, postemergence, read-out: Corn plant response rating; for plant injury at 125 g/ha: 125 g ai/ha, visual injury on 0 to 100 scale (0 no effect, 100 complete control), approx. 10 d; for plant injury at 500 g/ha: 500 g ai/ha, 0 to 100 scale, 0 is no effect, 100 is complete control
Outline: as §1

[10] = system: ryegrass, Italian (Italian ryegrass, Lolium multiflorum); experiment: Test A postemergence; conditions: Lolium multiflorum, post-emergence, 240 h, postemergence, read-out: Ryegrass, Italian plant response rating; for pest or weed control at 125 g/ha: 125 g ai/ha, visual injury on 0 to 100 scale (0 no effect, 100 complete control), approx. 10 d; for pest or weed control at 500 g/ha: 500 g ai/ha, 0 to 100 scale, 0 is no effect, 100 is complete control
Outline: as §1

[11] = system: blackgrass (Alopecurus myosuroides); experiment: Test A postemergence; conditions: Alopecurus myosuroides, post-emergence, 240 h, postemergence, read-out: Blackgrass plant response rating; for pest or weed control at 125 g/ha: 125 g ai/ha, visual injury on 0 to 100 scale (0 no effect, 100 complete control), approx. 10 d; for pest or weed control at 500 g/ha: 500 g ai/ha, 0 to 100 scale, 0 is no effect, 100 is complete control
Outline: as §1

[12] = system: pigweed (Amaranthus retroflexus); experiment: Test A postemergence; conditions: Amaranthus retroflexus, post-emergence, 240 h, postemergence, read-out: Pigweed plant response rating; for pest or weed control at 125 g/ha: 125 g ai/ha, visual injury on 0 to 100 scale (0 no effect, 100 complete control), approx. 10 d; for pest or weed control at 500 g/ha: 500 g ai/ha, 0 to 100 scale, 0 is no effect, 100 is complete control
Outline: as §1

[13] = system: ragweed (common ragweed, Ambrosia elatior); experiment: Test A postemergence; conditions: Ambrosia artemisiifolia, post-emergence, 240 h, postemergence, read-out: Ragweed plant response rating; for pest or weed control at 125 g/ha: 125 g ai/ha, visual injury on 0 to 100 scale (0 no effect, 100 complete control), approx. 10 d; for pest or weed control at 500 g/ha: 500 g ai/ha, 0 to 100 scale, 0 is no effect, 100 is complete control
Outline: as §1

[14] = system: Galium (catchweed bedstraw, Galium aparine); experiment: Test A postemergence; conditions: Galium, post-emergence, 240 h, postemergence, read-out: Galium plant response rating; for pest or weed control at 125 g/ha: 125 g ai/ha, visual injury on 0 to 100 scale (0 no effect, 100 complete control), approx. 10 d; for pest or weed control at 500 g/ha: 500 g ai/ha, 0 to 100 scale, 0 is no effect, 100 is complete control
Outline: as §1

[15] = system: Kochia (Kochia scoparia); experiment: Test A postemergence; conditions: Bassia scoparia, post-emergence, 240 h, postemergence, read-out: Kochia plant response rating; for pest or weed control at 125 g/ha: 125 g ai/ha, visual injury on 0 to 100 scale (0 no effect, 100 complete control), approx. 10 d; for pest or weed control at 500 g/ha: 500 g ai/ha, 0 to 100 scale, 0 is no effect, 100 is complete control
Outline: as §1

[16] = system: wheat (Triticum aestivum); experiment: Test A postemergence; conditions: Triticum aestivum, post-emergence, 240 h, postemergence, read-out: Wheat plant response rating; for plant injury at 125 g/ha: 125 g ai/ha, visual injury on 0 to 100 scale (0 no effect, 100 complete control), approx. 10 d; for plant injury at 500 g/ha: 500 g ai/ha, 0 to 100 scale, 0 is no effect, 100 is complete control
Outline: as §1

Structure (SMILES): O=C1NC[C@H](c2csc(C(F)F)c2)[C@H]1C(=O)Nc1cccc(F)c1F [Compound 1119]
- pest or weed control at 125 g/ha [1]: 90%
- pest or weed control at 500 g/ha [1]: 90%
- pest or weed control at 125 g/ha [2]: 50%
- pest or weed control at 500 g/ha [2]: 80%
- pest or weed control at 125 g/ha [3]: 20%
- pest or weed control at 500 g/ha [3]: 30%
- pest or weed control at 125 g/ha [4]: 0%
- pest or weed control at 500 g/ha [4]: 30%
- pest or weed control at 125 g/ha [5]: 70%
- pest or weed control at 500 g/ha [5]: 70%
- pest or weed control at 125 g/ha [6]: 70%
- pest or weed control at 500 g/ha [6]: 80%
- pest or weed control at 125 g/ha [7]: 80%
- pest or weed control at 500 g/ha [7]: 90%
- pest or weed control at 125 g/ha [8]: 30%
- pest or weed control at 500 g/ha [8]: 70%
- plant injury at 125 g/ha [9]: 20%
- plant injury at 500 g/ha [9]: 30%
- pest or weed control at 125 g/ha [10]: 30%
- pest or weed control at 500 g/ha [10]: 30%
- pest or weed control at 125 g/ha [11]: 50%
- pest or weed control at 500 g/ha [11]: 70%
- pest or weed control at 125 g/ha [12]: 0%
- pest or weed control at 500 g/ha [12]: 20%
- pest or weed control at 125 g/ha [13]: 20%
- pest or weed control at 500 g/ha [13]: 60%
- pest or weed control at 125 g/ha [14]: 40%
- pest or weed control at 500 g/ha [14]: 50%
- pest or weed control at 125 g/ha [15]: 40%
- pest or weed control at 500 g/ha [15]: 60%
- plant injury at 125 g/ha [16]: 20%
- plant injury at 500 g/ha [16]: 50%

Structure (SMILES): CN1C[C@H](c2cc(C(F)F)cs2)[C@@H](C(=O)Nc2cccc(F)c2F)C1=O [Compound 1121]
- pest or weed control at 125 g/ha [1]: 90%
- pest or weed control at 500 g/ha [1]: 100%
- pest or weed control at 125 g/ha [2]: 90%
- pest or weed control at 500 g/ha [2]: 100%
- pest or weed control at 125 g/ha [3]: 50%
- pest or weed control at 500 g/ha [3]: 60%
- pest or weed control at 125 g/ha [4]: 0%
- pest or weed control at 500 g/ha [4]: 50%
- pest or weed control at 125 g/ha [5]: 50%
- pest or weed control at 500 g/ha [5]: 100%
- pest or weed control at 125 g/ha [6]: 80%
- pest or weed control at 500 g/ha [6]: 100%
- pest or weed control at 125 g/ha [7]: 90%
- pest or weed control at 500 g/ha [7]: 90%
- pest or weed control at 125 g/ha [8]: 90%
- pest or weed control at 500 g/ha [8]: 90%
- plant injury at 125 g/ha [9]: 50%
- plant injury at 500 g/ha [9]: 90%
- pest or weed control at 125 g/ha [10]: 40%
- pest or weed control at 500 g/ha [10]: 70%
- pest or weed control at 125 g/ha [11]: 40%
- pest or weed control at 500 g/ha [11]: 60%
- pest or weed control at 125 g/ha [12]: 20%
- pest or weed control at 500 g/ha [12]: 40%
- pest or weed control at 125 g/ha [13]: 20%
- pest or weed control at 500 g/ha [13]: 40%
- pest or weed control at 125 g/ha [14]: 50%
- pest or weed control at 500 g/ha [14]: 60%
- pest or weed control at 125 g/ha [15]: 50%
- pest or weed control at 500 g/ha [15]: 70%
- plant injury at 125 g/ha [16]: 30%
- plant injury at 500 g/ha [16]: 60%
